{"source": "patent EP2298778A1", "about": "“IMIDAZOTHIAZOLE DERIVATIVE HAVING 4,7-DIAZASPIROÝ2.5¨OCTANE RING STRUCTURE” (Daiichi Sankyo Company, Limited, priority 2008, dated 2009)"}
{"assay": "Metabolic stability test (microsomal metabolism test)", "format": "in vitro ADME", "details": "pH 7.4; human-derived liver microsomes, test compound remaining after addition of NADP+ and incubation at 37°C for 30 minutes; read-out: metabolic stability of T/C%", "summary_of_the_method": "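Test compound was added as a 3 µM solution to human liver microsomes (0.3–1.5 mgP/mL) in pH 7.4 phosphate buffer with G6P, G6P dehydrogenase and MgCl2. This was preincubated 20 min at 37°C, then 3 mM NADP+ solution was added and incubated 30 min at 37°C. T/C (%) is compound remaining after versus before NADP+ addition.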", "units": {"remaining at 0.5 h": "%"}}
{"compound": "CC(C)C1=C(C(=O)N2[C@H](C)CC[C@H]2C(=O)N2CCN(C)C3(CC3)C2)SC2=N[C@@](C)(c3ccc(Cl)nc3)[C@@H](c3ccc(Cl)cc3)N21", "note": "[Example 9, 7-[(5R)-1-{[(5R,6S)-5-(4-chlorophenyl)-6-(6-chloropyridin-3-yl)-3-isopropyl-6-methyl-5,6-dihydroimidazo[2,1-b][1,3]thiazol-2-yl]carbonyl}-5-methyl-L-prolyl]-4-methyl-4,7-diazaspiro[2.5]octane]", "remaining at 0.5 h": "≥ 50"}
{"compound": "CC[C@@H]1CNC2(CC2)CN1C(=O)[C@@H]1CC[C@@H](C)N1C(=O)C1=C(C(C)C)N2C(=N[C@@](C)(c3ccc(Cl)nc3)[C@H]2c2ccc(Cl)c(F)c2)S1", "note": "[Example 59, (6R)-7-[(5R)-1-{[(5R,6S)-5-(4-chloro-3-fluorophenyl)-6-(6-chloropyridin-3-yl)-3-isopropyl-6-methyl-5,6-dihydroimidazo[2,1-b][1,3]thiazol-2-yl]carbonyl}-5-methyl-L-prolyl]-6-ethyl-4,7-diazaspiro[2.5]octane]", "remaining at 0.5 h": "≥ 50"}
{"compound": "CCN(C(=O)C1=C(C(C)C)N2C(=N[C@@](C)(c3ccc(Cl)cc3)[C@H]2c2ccc(Cl)cc2)S1)C1(C(=O)N2CCNC3(CC3)C2)CC1", "note": "[Example 50, (5R,6S)-5,6-bis(4-chlorophenyl)-N-[1-(4,7-diazaspiro[2.5]oct-7-ylcarbonyl)cyclopropyl]-N-ethyl-3-isopropyl-6-methyl-5,6-dihydroimidazo[2,1-b][1,3] thiazole-2-carboxamide]", "remaining at 0.5 h": "≥ 50"}
{"compound": "CC[C@@H]1CC[C@@H](C(=O)N2CC3(CC3)NC[C@@H]2C)N1C(=O)C1=C(C(C)C)N2C(=N[C@@](C)(c3ccc(Cl)nc3)[C@H]2c2ccc(Cl)c(F)c2)S1", "note": "[Example 56, (6S)-7-[(5R)-1-{[(5R,6S)-5-(4-chloro-3-fluorophenyl)-6-(6-chloropyridin-3-yl)-3-isopropyl-6-methyl-5,6-dihydroimidazo[2,1-b][1,3]thiazol-2-yl]carbonyl}-5-ethyl-L-prolyl]-6-methyl-4,7-diazaspiro[2.5]octane]", "remaining at 0.5 h": "≥ 50"}
{"compound": "CC[C@@H]1CC[C@@H](C(=O)N2CCNC3(CC3)C2)N1C(=O)C1=C(C(C)C)N2C(=N[C@@](C)(c3ccc(Cl)nc3)[C@H]2c2ccc(Cl)c(F)c2)S1", "note": "[Example 32, 7-[(5R)-1-{[(5R,6S)-5-(4-chloro-3-fluorophenyl)-6-(6-chloropyridin-3-yl)-3-isopropyl-6-methyl-5,6-dihydroimidazo[2,1-b][1,3]thiazol-2-yl]carbonyl}-5-ethyl-L-prolyl]-4,7-diazaspiro[2.5]octane]", "remaining at 0.5 h": "≥ 50"}
{"compound": "CCN1CCN(C(=O)[C@@H]2CC[C@@H](C)N2C(=O)C2=C(C(C)C)N3C(=N[C@@](C)(c4ccc(Cl)nc4)[C@H]3c3ccc(Cl)c(F)c3)S2)CC12CC2", "note": "[Example 14, 7-[(5R)-1-{[(5R,6S)-5-(4-chloro-3-fluorophenyl)-6-(6-chloropyridin-3-yl)-3-isopropyl-6-methyl-5,6-dihydroimidazo[2,1-b][1,3]thiazol-2-yl]carbonyl}-5-methyl-L-prolyl]-4-ethyl-4,7-diazaspiro[2.5]octane]", "remaining at 0.5 h": "≥ 50"}
{"compound": "CCN(C(=O)C1=C(C(C)C)N2C(=N[C@@](C)(c3ccc(Cl)cc3)[C@H]2c2ccc(Cl)cc2)S1)[C@@H](C)C(=O)N1CCNC2(CC2)C1", "note": "[Example 54, (5R,6S)-5,6-bis(4-chlorophenyl)-N-[(1S)-2-(4,7-diazaspiro[2.5]oct-7-yl)-1-methyl-2-oxoethyl]-N-ethyl-3-isopropyl-6-methyl-5,6-dihydroimidazo[2,1-b][1,3]thiazole-2-carboxamide]", "remaining at 0.5 h": "≥ 50"}
{"compound": "CC(C)C1=C(C(=O)N2[C@H](C)CC[C@H]2C(=O)N2C[C@@H](C)NC3(CC3)C2)SC2=N[C@@](C)(c3ccc(Cl)cc3)[C@@H](c3ccc(Cl)cc3)N21", "note": "[Example 16, (5R)-7-[(5R)-1-{[(5R,6S)-5,6-bis(4-chlorophenyl)-3-isopropyl-6-methyl-5,6-dihydroimidazo[2,1-b][1,3]thiazol-2-yl]carbonyl}-5-methyl-L-prolyl]-5-methyl-4,7-diazaspiro[2.5]octane]", "remaining at 0.5 h": "≥ 50"}
{"compound": "CC(C)C1=C(C(=O)N2[C@H](C)CC[C@H]2C(=O)N2CC3(CC3)NC[C@@H]2C)SC2=N[C@@](C)(c3ccc(Cl)nc3)[C@@H](c3ccc(Cl)c(F)c3)N21", "note": "[Example 21, (6S)-7-[(5R)-1-{[(5R,6S)-5-(4-chloro-3-fluorophenyl)-6-(6-chloropyridin-3-yl)-3-isopropyl-6-methyl-5,6-dihydroimidazo[2,1-b][1,3]thiazol-2-yl]carbonyl}-5-methyl-L-prolyl]-6-methyl-4,7-diazaspiro[2.5]octane]", "remaining at 0.5 h": "≥ 50"}
{"compound": "CC(C)C1=C(C(=O)N2C(=O)CC[C@H]2C(=O)N2CCNC3(CC3)C2)SC2=N[C@@](C)(c3ccc(Cl)nc3)[C@@H](c3ccc(Cl)c(F)c3)N21", "note": "[Example 44, (5S)-1-{[(5R,6S)-5-(4-chloro-3-fluorophenyl)-6-(6-chloropyridin-3-yl)-3-isopropyl-6-methyl-5,6-dihydroimidazo[2,1-b][1,3]thiazol-2-yl]carbonyl}-5-(4,7-diazaspiro[2.5]oct-7-ylcarbonyl)pyrrolidin-2-one]", "remaining at 0.5 h": "≥ 50"}
{"compound": "CC(C)C1=C(C(=O)N2[C@H](C)CC[C@H]2C(=O)N2CC3(CC3)N(C)C[C@@H]2C)SC2=N[C@@](C)(c3ccc(Cl)nc3)[C@@H](c3ccc(Cl)c(F)c3)N21", "note": "[Example 22, (6S)-7-[(5R)-1-{[(5R,6S)-5-(4-chloro-3-fluorophenyl)-6-(6-chloropyridin-3-yl)-3-isopropyl-6-methyl-5,6-dihydroimidazo[2,1-b][1,3]thiazol-2-yl]carbonyl}-5-methyl-L-prolyl]-4,6-dimethyl-4,7-diazaspiro[2.5]octane]", "remaining at 0.5 h": "≥ 50"}
{"compound": "CC(C)C1=C(C(=O)N2[C@H](C)CC[C@H]2C(=O)N2CCNC3(CC3)C2)SC2=N[C@@](C)(c3ccc(Cl)cc3)[C@@H](c3ccc(Cl)cc3)N21", "note": "[Example 1, 7-[(5R)-1-{[(5R,6S)-5,6-bis(4-chlorophenyl)-3-isopropyl-6-methyl-5,6-dihydroimidazo[2,1-b][1,3]thiazol-2-yl]carbonyl}-5-methyl-L-prolyl]-4,7-diazaspiro[2.5]octane]", "remaining at 0.5 h": "≥ 50"}
{"compound": "CC(C)C1=C(C(=O)N2[C@H](C)CC[C@H]2C(=O)N2CCNC3(CC3)C2)SC2=N[C@@](C)(c3ccc(Cl)nc3)[C@@H](c3ccc(C(F)(F)F)c(F)c3)N21", "note": "[Example 74, 7-[(5R)-1-({(5R,6S)-6-(6-chloropyridin-3-yl)-5-[3-fluoro-4-(trifluoromethyl)phenyl]-3-isopropyl-6-methyl-5,6-dihydroimidazo[2,1-b][1,3]thiazol-2-yl}carbonyl)-5-methyl-L-prolyl]-4,7-diazaspiro[2.5]octane]", "remaining at 0.5 h": "≥ 50"}
{"compound": "CC(C)C1=C(C(=O)N2[C@H](C)CC[C@H]2C(=O)N2CCN(CCO)C3(CC3)C2)SC2=N[C@@](C)(c3ccc(Cl)nc3)[C@@H](c3ccc(Cl)c(F)c3)N21", "note": "[Example 13]", "remaining at 0.5 h": "≥ 50"}
{"compound": "CC(C)C1=C(C(=O)N2[C@H](C)CC[C@H]2C(=O)N2CCN(CCO)C3(CC3)C2)SC2=N[C@@](C)(c3ccc(Cl)cc3)[C@@H](c3ccc(Cl)c(F)c3)N21", "note": "[Example 7, 2-{7-[(5R)-1-{[(5R,6S)-5-(4-chloro-3-fluorophenyl)-6-(4-chlorophenyl)-3-isopropyl-6-methyl-5,6-dihydroimidazo[2,1-b][1,3]thiazol-2-yl]carbonyl}-5-methyl-L-prolyl]-4,7-diazaspiro[2.5]oct-4-yl}ethanol]", "remaining at 0.5 h": "≥ 50"}
